Key:
[1] = CD refolding kinetics / triple helix folding rate of CMPs; type: physicochemical; settings: after UV exposure; thermal quenching from 80° C. to 25° C.
Procedure: Circular dichroism spectroscopy. CD spectra were collected on JASCO 715 spectrophotometer equipped with a JASCO PTC-348 WI temperature controller and quartz cells (0.1 mm path length). CMP solutions (320 μL, 150 μM in 1×PBS) were stored at 4° C. for at least 24 hours before measurement. For photo-decaging, samples were exposed to 365 nm UV light for at least 30 minutes before the 4° C. incubation. The thermal melting studies were performed by measuring the ellipticity at 225 nm with 60° C./hr heating rate. Raw CD signal was normalized to mean residue ellipticity based on the peptide's length and concentration (Biopolymers 95:94-104 (2011)). Melting temperatures (Tm) were determined by fitting the mean residue ellipticity to a two-state model (Org Lett 8:4735-4738 (2006)). […] The CD spectra of intact and MMP-1 cleaved type I collagen (FIG. 12) was measured in 90 μg/mL protein solutions in 20 mM acetic acid buffer at 22° C. The 37° C. thermal stability profile (FIG. 2E, inset) was generated by monitoring the ellipticity at 222 nm immediately after transferring the cuvette to a temperature controlled cuvette holder pre-set to 37° C. The Tm values reported in this study are approximately 10° C. higher than the equilibrium Tm due to high heating rate (60° C./hr) (Biopolymers 73:682-688 (2004)).

[2] = target: T1, MMP-1 digested type I collagen (Rattus norvegicus, UniProt P02454+P02466); assay: Staining of SDS-PAGE gels using photo-decaged CMP; type: binding; settings: 6 μM, UV-activation
T1 construct: purchased BD Science (collagen); EMD Millipore (ProMMP-1); host or cells: rat tail; digested in house
Procedure: Staining of SDS-PAGE gels using photo-decaged CF(GPO)9 (SEQ ID NO: 10). MMP-1 digested type I collagen (3.5 μg) was separated by SDS-PAGE (4-12% polyacrylamide gel) under non-reducing condition, along with unstained protein ladder (Life technologies, LC5801). After washing, the gel was soaked in 6 μM CF^NB(GPO)9 (SEQ ID NO: 4) (or CF^SG9P9O9 (SEQ ID NO: 5)) in 1×PBS solution, followed by exposure to 365 nm UV light for 15 min, and 2.5 hr of staining. The gel was washed with deionized water and scanned using Typhoon 9410 Imager (GE Healthcare) with 488 nm fluorescence channel. Afterwards, the protein gel was stained by coomassie brilliant blue and imaged by Gel Doc EQ system (BioRad).

[3] = target: T2, thermally-denatured collagen (gelatin) films (Rattus norvegicus, UniProt P02454+P02466); assay: Photo-triggered CMP binding assay on gelatin films
T2 construct: To make gelatin films, the same collagen solution was denatured at 70° C. for 15 minutes; purchased BD Science; host or cells: rat tail
Procedure: Collagen/gelatin binding assays. Collagen solution (200 μL, 3.71 mg/mL, type I rat tail, BD Science) in 0.02 N acetic acid was added to each well of a 96-well black/clear-bottom plate (Costar) and air-dried. To make gelatin films, the same collagen solution was denatured at 70° C. for 15 minutes before applying to the well. The dried films were neutralized and washed with 1×PBS buffer (pH 7.4) and deionized water. PBS solution of carboxyfluorescein-labeled caged CMP (40 μL, 50 μM, unless indicated otherwise) pre-equilibrated at 4° C. was added onto each reconstituted collagen or gelatin film and exposed to 365 nm UV light (10 mW/cm^2, from mercury arc lamp) for 11 minutes on ice. Wells for the UV-negative control groups were covered with aluminum foil to block UV exposure. After incubation at 4° C. for over 3 hours (unless indicated otherwise), the unbound materials were removed by rinsing with PBS buffer and deionized water. The films were allowed to dry in dark, after which the fluorescence (ex: 489 nm, em: 533 nm) was measured with a SpectraMax Gemini XPS microplate reader (Molecular Devices). Each binding experiment was done in triplicate.

[4] = target: T3, complement factor C1q (Homo sapiens, UniProt P02745+P02746+P02747); assay: SDS-PAGE staining of collagen-like protein C1q; type: binding; settings: 6 μM, heat activated, 2 μg
T3 construct: Complement component C1q from human serum; purchased Sigma-Aldrich; host or cells: human serum
Source text: Acid soluble rat-tail type I collagen, bovine type II collagen, and mouse type IV collagen were purchased from BD Bioscience (San Jose, Calif.). Complement component C1q from human serum, fibronectin from bovine plasma, and laminin from Engelbreth-Holm-Swarm murine sarcoma basement membrane were purchased from Sigma-Aldrich. ProMMP-1, and p-aminophenylmercuric acetate were acquired from EMD millipore. Human umbilical vein endothelial cells (HUVECs) and EGM-2 cell growth media were obtained from Lonza (Walkersville, Md.). Precast NuPAGE® Novex 4-12% Bis-Tris Gel (1.0 mm, 12 well), Novex® Sharp unstained protein standard, and SDS-PAGE running buffer, sample buffer, and other SDS-PAGE reagents were purchased from Life Technologies.
SDS-PAGE staining and imaging. Proteins were resolved on NuPAGE® Novex 4-12% bis-tris gels under denaturating conditions using an XCell SureLock™ Mini-Cell electrophoresis system (Life Technologies). NuPAGE® MOPS SDS running buffer containing 50 mM MOPS, 50 mM Tris Base, 0.1% SDS, and 1 mM EDTA (pH 7.7) was used. […] The fluorescence intensities of the protein bands were quantified using GE ImageQuant™ TL software. After fluorescence imaging, all gels were further stained with coomassie brilliant blue (CB) G-250 (Bio-Rad) for 2-3 hr followed by washing, and imaging under white light illumination using a Gel Doc EQ system (BioRad).

T1 sequence (P02454 152-942 limits assumed): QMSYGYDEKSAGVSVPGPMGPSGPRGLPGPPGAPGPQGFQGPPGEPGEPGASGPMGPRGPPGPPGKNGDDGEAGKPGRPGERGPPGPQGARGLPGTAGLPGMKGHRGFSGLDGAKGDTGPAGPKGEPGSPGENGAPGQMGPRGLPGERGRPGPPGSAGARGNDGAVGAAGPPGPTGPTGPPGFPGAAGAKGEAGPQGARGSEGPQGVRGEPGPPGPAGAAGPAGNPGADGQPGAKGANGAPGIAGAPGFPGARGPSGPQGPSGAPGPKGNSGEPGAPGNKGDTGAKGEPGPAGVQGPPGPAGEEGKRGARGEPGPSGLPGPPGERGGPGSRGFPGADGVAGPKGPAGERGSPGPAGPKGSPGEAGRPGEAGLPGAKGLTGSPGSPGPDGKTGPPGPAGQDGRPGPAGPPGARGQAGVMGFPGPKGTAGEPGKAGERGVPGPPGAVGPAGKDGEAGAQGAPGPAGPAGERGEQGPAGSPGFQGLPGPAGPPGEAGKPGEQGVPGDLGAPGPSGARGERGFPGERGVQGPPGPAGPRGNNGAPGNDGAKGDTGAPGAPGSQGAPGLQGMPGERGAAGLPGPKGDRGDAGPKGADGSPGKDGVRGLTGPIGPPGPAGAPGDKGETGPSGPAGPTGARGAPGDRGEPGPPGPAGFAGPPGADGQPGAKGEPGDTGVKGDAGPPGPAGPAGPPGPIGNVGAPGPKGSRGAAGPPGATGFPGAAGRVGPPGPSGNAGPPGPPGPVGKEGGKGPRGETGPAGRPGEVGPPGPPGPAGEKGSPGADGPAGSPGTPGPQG
T1 sequence (P02454 943-1207 limits assumed): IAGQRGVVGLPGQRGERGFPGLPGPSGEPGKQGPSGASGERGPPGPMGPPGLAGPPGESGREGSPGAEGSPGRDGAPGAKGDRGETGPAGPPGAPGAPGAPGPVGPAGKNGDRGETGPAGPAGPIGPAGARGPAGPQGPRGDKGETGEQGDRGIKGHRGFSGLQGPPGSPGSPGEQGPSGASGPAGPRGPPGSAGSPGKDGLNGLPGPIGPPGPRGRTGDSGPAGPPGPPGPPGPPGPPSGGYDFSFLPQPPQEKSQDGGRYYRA
T1 sequence (P02466 86-871 limits assumed): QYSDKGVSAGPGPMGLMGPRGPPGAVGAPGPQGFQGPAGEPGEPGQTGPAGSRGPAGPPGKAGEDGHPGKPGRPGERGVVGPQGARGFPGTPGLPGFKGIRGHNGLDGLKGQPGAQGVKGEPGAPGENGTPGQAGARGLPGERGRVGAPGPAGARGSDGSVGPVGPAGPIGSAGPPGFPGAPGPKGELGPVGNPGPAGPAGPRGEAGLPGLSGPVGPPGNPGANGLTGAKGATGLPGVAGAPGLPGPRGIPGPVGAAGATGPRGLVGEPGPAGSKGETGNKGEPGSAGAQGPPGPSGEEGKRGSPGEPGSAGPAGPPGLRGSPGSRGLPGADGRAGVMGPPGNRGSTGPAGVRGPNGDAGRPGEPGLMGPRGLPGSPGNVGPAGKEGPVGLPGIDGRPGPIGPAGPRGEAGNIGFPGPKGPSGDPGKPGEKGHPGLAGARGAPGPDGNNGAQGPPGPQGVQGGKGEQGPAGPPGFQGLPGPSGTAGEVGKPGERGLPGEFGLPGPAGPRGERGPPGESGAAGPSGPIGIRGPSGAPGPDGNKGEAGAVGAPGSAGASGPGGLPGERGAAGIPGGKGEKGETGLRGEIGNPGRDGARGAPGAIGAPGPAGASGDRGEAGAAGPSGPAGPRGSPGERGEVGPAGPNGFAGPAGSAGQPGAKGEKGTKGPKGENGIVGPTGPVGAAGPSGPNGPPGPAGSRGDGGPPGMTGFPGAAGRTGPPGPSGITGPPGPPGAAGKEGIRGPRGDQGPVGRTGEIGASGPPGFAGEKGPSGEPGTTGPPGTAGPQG
T1 sequence (P02466 872-1125 limits assumed): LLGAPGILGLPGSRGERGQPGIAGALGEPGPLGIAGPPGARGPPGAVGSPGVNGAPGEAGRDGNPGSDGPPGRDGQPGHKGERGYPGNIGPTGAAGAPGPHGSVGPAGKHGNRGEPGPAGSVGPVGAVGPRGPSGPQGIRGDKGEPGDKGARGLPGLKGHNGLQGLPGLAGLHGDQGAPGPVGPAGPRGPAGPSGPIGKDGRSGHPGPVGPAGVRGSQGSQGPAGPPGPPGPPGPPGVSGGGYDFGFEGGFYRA
T2 sequence (P02454 152-1207 limits assumed): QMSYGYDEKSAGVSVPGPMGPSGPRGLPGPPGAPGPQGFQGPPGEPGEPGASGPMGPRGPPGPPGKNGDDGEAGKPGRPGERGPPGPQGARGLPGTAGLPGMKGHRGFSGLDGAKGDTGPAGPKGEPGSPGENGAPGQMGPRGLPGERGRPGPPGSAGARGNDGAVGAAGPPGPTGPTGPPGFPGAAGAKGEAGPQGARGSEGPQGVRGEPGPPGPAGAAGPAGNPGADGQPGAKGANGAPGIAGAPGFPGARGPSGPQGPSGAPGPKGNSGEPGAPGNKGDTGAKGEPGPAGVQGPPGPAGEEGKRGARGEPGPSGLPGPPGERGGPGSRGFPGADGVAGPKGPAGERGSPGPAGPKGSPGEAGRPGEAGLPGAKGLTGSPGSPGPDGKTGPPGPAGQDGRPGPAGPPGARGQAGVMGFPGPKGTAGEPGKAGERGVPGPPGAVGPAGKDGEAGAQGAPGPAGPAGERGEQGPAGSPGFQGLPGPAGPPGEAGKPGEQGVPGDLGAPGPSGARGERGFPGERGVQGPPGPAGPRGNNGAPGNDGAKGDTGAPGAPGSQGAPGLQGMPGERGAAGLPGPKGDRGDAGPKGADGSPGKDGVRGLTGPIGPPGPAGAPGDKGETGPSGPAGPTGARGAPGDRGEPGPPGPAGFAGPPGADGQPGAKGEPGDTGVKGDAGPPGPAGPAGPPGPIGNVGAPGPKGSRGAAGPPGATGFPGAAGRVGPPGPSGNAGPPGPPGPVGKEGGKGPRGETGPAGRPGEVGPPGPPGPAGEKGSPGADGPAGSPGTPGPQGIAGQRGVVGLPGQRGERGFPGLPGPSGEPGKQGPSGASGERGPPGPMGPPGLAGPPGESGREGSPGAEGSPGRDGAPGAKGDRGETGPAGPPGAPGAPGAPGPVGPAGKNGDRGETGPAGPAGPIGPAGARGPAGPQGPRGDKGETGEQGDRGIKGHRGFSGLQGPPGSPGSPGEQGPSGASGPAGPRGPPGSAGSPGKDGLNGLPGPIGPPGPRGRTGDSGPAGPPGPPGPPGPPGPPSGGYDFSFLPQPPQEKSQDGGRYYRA
T2 sequence (P02466 86-1125 limits assumed): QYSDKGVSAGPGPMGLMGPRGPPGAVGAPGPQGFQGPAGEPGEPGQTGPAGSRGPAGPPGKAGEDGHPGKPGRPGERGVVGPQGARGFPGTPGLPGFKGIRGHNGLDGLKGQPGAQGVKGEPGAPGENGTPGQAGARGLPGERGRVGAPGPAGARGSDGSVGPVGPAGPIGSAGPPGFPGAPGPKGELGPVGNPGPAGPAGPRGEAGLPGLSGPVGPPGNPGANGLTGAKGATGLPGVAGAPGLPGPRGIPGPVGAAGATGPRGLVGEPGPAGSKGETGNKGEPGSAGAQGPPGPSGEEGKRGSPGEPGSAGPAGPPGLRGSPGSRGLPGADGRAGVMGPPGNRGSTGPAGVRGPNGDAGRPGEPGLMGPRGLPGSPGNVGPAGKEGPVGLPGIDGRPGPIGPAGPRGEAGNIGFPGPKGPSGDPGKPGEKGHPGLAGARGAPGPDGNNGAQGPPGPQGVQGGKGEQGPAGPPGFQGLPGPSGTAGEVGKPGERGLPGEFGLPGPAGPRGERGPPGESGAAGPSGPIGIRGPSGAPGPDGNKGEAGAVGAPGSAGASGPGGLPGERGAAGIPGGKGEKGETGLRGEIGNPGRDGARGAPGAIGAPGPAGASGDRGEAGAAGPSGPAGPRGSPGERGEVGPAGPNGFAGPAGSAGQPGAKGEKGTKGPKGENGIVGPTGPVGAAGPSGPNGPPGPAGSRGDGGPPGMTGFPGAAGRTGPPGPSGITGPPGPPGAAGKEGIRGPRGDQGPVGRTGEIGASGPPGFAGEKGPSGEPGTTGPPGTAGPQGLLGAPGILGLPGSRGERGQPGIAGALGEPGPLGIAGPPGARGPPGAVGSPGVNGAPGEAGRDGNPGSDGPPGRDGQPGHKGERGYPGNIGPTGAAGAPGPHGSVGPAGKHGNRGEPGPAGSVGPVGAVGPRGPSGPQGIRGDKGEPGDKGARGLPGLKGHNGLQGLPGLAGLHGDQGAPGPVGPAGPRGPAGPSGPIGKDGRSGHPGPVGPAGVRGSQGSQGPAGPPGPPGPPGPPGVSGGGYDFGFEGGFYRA
T3 sequence (P02745 23-245): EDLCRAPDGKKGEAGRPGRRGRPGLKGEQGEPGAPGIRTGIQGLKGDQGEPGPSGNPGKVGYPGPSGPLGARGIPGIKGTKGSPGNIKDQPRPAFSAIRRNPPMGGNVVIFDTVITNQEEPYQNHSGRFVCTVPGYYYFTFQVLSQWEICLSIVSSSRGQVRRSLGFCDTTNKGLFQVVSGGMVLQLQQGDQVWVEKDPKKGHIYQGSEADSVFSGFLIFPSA
T3 sequence (P02746 28-253): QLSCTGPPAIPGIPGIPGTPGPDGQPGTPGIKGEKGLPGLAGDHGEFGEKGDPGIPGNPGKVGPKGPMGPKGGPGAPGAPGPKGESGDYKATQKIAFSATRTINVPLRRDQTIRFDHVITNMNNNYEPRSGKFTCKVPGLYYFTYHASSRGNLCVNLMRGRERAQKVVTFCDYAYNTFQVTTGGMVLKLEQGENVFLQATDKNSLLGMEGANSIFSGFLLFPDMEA
T3 sequence (P02747 29-245): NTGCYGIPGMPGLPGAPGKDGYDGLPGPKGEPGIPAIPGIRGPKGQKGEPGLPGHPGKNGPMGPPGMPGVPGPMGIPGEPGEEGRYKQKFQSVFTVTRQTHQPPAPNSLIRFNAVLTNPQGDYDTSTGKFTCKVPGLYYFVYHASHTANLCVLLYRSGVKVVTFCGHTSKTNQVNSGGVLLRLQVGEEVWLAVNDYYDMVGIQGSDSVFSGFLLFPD

| Substance | refolding kinetics (CD 225 nm) [1] | staining of MMP-1 digested collagen bands [2] | staining of protein ladder bands [2] | binding (fluorescence intensity of film) ([3]; caged, UV−) | level of binding on gelatin relative to collagen ([3]; photo-activated (UV+)) | staining of C1q chains [4] |
| --- | --- | --- | --- | --- | --- | --- |
| CF-GGG-(GPO)4^NBGPO(GPO)4 [CF^NB(GPO)9] | fast refolding kinetics | able to stain the MMP-1 digested collagen bands | No other bands from the protein ladder were stained | negligible | an order of magnitude higher | – |
| CF-GGG-(GPO)9 [CF(GPO)9] | – | – | – | – | – | almost as effectively as collagens |
